Measured values published in patent publication US20240093198A1, “TGF-BETA THERAPEUTICS FOR AGE DISEASE” (GMP BIOTECHNOLOGY LIMITED, priority 2021, published 2024).
≈ marks a conversion by molar mass, not a printed value.

Tests used:
SARS-COV-2 USA_WA1/2020 [1] = test: microbe, parasite or virus in culture; settings: Severe acute respiratory syndrome coronavirus 2, Vero 76, read-out: EC50: 50% effective antiviral concentration
in vitro = settings: African green monkey
SARS-COV-2 USA_WA1/2020 [2] = settings: Vero 76 cells
SARS-COV-2 = settings: from Wang M et al., Cell Res. 2020; cited from earlier work
[3] = by day 28, p<0.0001, not with SOC alone

Question: With `C[C@@H]1CC[C@H]2[C@@H](C)C(=O)O[C@@H]3O[C@@]4(C)CC[C@@H]1[C@]32OO4` [Artemisinin] as the compound, how does the EC50 (SARS-COV-2 USA_WA1/2020 [1]) read?
Answer: 0.45 µg/mL (≈ 1.59 µM)

Question: What about the CC50 (in vitro) of the same compound?
Answer: 61 µg/mL (≈ 216 µM)

Question: And the “SI = CC50/EC50 (Safety Index)” value (SARS-COV-2 USA_WA1/2020 [2])?
Answer: 140

Question: What about the Safety profile (COVID-19; 80 patients on Artemisinin) of the same compound?
Answer: very favorable safety profile

Question: And the WHO severity scale (COVID-19; Day 4 and Day 5, p=0.0045 and p=0.0370)?
Answer: significant improvement over SOC

Question: What about the “Recovery of patients with mild-moderate COVID-19 across symptoms (fever, sore throat, dry cough, ache)” value (COVID-19; added to the SOC) of the same compound?
Answer: accelerated the recovery

Question: What about the “Decline in body temperature in comparison to SOC arm” value (COVID-19; by day 2) of the same compound?
Answer: faster and higher

Question: What about the “Improvement in respiratory rate in comparison to SOC arm” value (COVID-19; by day 5) of the same compound?
Answer: faster and higher

Question: What about the “Improvement in mean SpO2 level in comparison to SOC arm” value (COVID-19; by day 28 (end of study), p=0.029) of the same compound?
Answer: significantly higher

Question: What about the O2 sat (COVID-19; [3]) of the same compound?
Answer: fully recovered

Question: What about the respiratory rate (COVID-19; [3]) of the same compound?
Answer: fully recovered

Question: And the “Artemisinin-related adverse events (the only ones)” value (COVID-19; human, in vivo)?
Answer: transient mild rash and mild hypertension

Question: What about the “Changes in biochemistry or hematology parameters” value (COVID-19; human, in vivo) of the same compound?
Answer: no clinically significant changes

Question: What about the Efficacy in words (COVID-19; human, in vivo) of the same compound?
Answer: effective in treating subjects with mild and moderate COVID-19

Question: And the Safety and tolerability (COVID-19; human, in vivo)?
Answer: safe and well-tolerated

Question: And the “Reduction of WHO score on the first few doses” value (COVID-19; p=0.0043, n=56 PulmoHeal+SOC vs n=25 SOC)?
Answer: Almost all of WHO-4 patients achieved a reduction WHO-3

Question: And the “Long term lung functions (FIG. 4)” value (COVID-19; patients with confirmed SARS-CoV-2 infection)?
Answer: restored long term lung functions

Question: For `CCC(CC)COC(=O)[C@H](C)N[P@](=O)(OC[C@H]1O[C@@](C#N)(c2ccc3c(N)ncnn23)[C@H](O)[C@@H]1O)Oc1ccccc1` [Remdesivir], which CC50 (SARS-COV-2) is on record?
Answer: > 100 µM
